Data: publication PMC11869342, “Design and synthesis of novel HDAC6 inhibitor dimer as HDAC6 degrader for cancer treatment by palladium catalysed dimerisation” (Journal of Enzyme Inhibition and Medicinal Chemistry, 2025)

Legend:
[1] = Solubility as observed when conducting assays; format: physicochemical
[2] = molecular target: T1, HDAC6 (Homo sapiens, UniProt Q9UBN7); assay: HDAC enzyme activity assay (Reaction Biology), HDAC6; format: biochemical; parameters: Full-length recombinant hHDAC 6 was expressed in a baculovirus expression system in SF9 cells; purchased Reaction Biology Corporation (Malvern, PA); host or cells: baculovirus / SF9 insect cells; conditions: full-length recombinant hHDAC 6, RHKKAc substrate 50 μM, 2 h at 30 °C
T1 sequence (Q9UBN7 1-1215): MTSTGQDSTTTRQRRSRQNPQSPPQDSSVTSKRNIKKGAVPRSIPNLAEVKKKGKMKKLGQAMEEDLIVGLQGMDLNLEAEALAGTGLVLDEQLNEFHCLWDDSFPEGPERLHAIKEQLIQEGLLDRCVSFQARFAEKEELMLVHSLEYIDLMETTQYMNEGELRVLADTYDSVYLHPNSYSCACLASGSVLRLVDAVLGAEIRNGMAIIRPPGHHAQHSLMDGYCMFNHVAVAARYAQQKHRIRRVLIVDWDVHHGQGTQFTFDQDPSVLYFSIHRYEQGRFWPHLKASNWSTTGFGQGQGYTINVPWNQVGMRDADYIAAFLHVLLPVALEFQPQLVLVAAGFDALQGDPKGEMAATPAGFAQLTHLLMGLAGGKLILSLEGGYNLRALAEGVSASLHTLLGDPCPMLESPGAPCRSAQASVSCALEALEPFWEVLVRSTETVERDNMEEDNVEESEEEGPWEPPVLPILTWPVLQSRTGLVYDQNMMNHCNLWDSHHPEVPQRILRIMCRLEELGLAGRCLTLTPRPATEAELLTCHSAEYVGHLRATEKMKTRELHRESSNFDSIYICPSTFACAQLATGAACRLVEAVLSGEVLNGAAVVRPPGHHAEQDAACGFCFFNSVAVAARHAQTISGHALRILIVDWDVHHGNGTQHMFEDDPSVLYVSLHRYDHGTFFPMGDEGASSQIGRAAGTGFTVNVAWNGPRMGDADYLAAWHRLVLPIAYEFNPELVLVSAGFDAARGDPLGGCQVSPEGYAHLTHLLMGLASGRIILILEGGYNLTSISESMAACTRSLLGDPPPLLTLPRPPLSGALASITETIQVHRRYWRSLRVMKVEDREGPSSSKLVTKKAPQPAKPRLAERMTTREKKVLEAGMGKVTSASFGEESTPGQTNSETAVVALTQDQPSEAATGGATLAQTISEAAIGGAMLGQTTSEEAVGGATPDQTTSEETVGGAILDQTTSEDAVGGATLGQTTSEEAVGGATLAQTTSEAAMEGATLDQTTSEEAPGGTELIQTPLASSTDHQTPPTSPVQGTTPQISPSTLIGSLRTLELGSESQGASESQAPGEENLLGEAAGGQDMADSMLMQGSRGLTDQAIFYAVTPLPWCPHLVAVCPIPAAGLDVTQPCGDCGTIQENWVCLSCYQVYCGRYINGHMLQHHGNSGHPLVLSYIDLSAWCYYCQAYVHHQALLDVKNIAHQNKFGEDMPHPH
Description: HDAC inhibition assays were performed by Reaction Biology Corporation (Malvern, PA). Full-length recombinant hHDAC 6 was expressed in a baculovirus expression system in SF9 cells. […] The reaction was stopped after 2 h at 30 °C . Trichostatin A was used as an internal control.

[3] = tested on: A549 cells; assay: Sulforhodamine B (SRB) assay, A549; format: cell-based; conditions: Homo sapiens; A549 cells, SRB, 48 h; read-out: GI50 con. ± SEM A549
Description: (§1) The A549 and PC-3 human lung and prostate cancer cell lines were acquired from the American Type Culture Collection (Rockville, MD). […] The cultures were kept in a 37 °C incubator with 5% CO2. When the adherent cultures reached 80% confluence, they were passaged using 0.05% trypsin-EDTA. PC-3 and A549 cells were seeded into 96-well plates in RPMI medium with 5% (v/v) foetal bovine serum for 24 h. Cells in partial wells were fixed with 10% trichloroacetic acid (TCA) to represent the initial time of compound treatment. The cells were treated with or without the indicated compound for 48 h and then were fixed with 10% TCA. After the washout with ddH2O and air-dried, SRB at 0.4% (w/v) in 1% acetic acid was added for staining. Unbound SRB was washed with 1% acetic acid and SRB-bounded cells were solubilised with 10 mM Tris base. The absorbance was read at a wavelength of 515 nm for the determination of cell growth.

[4] = tested on: Ac-α-tubulin; assay: Western blotting of Ac-α-tubulin in PC-3 cells; format: cell-based, human; conditions: 30 μM, 24 h
Description: Figure 3. Western blotting analysis of (a) HDAC6 protein in PC-3 cells treated with various dimer compounds at 30 μM for 24 h, (b) Ac-α-tubulin protein in PC-3 cells treated with various dimer compounds at 30 μM for 24 h, (c) LC-3 I, LC-3 II, and p62 proteins in PC-3 cells treated with various dimer compounds at 30 μM for 24 h, (d) PARP-1 and Caspase-3 proteins in PC-3 cells treated with various dimer compounds at 30 μM for 24 h, (e) p-BUBR1^S670 and p-BUBR1^T680 proteins in PC-3 cells treated with various dimer compounds at 30 μM for 24 h. Glyceraldehyde 3-phosphate dehydrogenase (GAPDH) was used as the loading control.
After compound treatment, the cells were harvested and centrifuged. […] The supernatants quantified by Bio-Rad protein assay kit (Bio-Rad Laboratories, Hercules, CA) were mixed with sample buffer (0.3 M Tris pH6.8, 10% SDS, 50% glycerol, 10% β-mercaptoethanol, and 0.02% bromophenol blue) and heated at 95 °C for 10 min. The protein (30 µg) was separated by electrophoresis in 8% or 12% SDS-PAGE, transferred to PVDF membranes, and detected with specific antibodies (1:1000 dilution for the first and 1:7000 for the second antibodies). The immunoreactive proteins were detected with an enhanced chemiluminescence detection kit (Amersham, Buckinghamshire, UK) and the images were captured by ChemiDoc™ MP System (Bio-Rad Laboratories, Hercules, CA).

[5] = tested on: PC-3 cells; assay: Sulforhodamine B (SRB) assay, PC-3; format: cell-based; conditions: Homo sapiens; PC-3 cells, SRB, 48 h; read-out: GI50 con. ± SEM PC-3
Description: as §1

solubility observed when conducting assays [1]: poor solubilities | IC50 [2]: > 10 µM | GI50 [3]: > 30 µM | GI50 [5]: > 30 µM
SMILES: O=C(NO)c1ccc(Cn2c(=O)n(CCc3ccc(NCCOCCOCCOCCNc4ccc(CCn5c(=O)c6ccccc6n(Cc6ccc(C(=O)NO)cc6)c5=O)cc4)cc3)c(=O)c3ccccc32)cc1 [Compound 6a, 4-({3-[2-(4-{2-[2–(2-{2-[4-(2-{1-[(4-Hydroxamophenyl)methyl]-2,4-dioxoquinazolin-3-yl}ethyl)phenylamino]ethoxy}ethoxy)ethoxy]ethylamino}phenyl)ethyl]-2,4-dioxoquinazolin-1-yl}methyl)benzohydroxamic acid]
Ac-α-tubulin level (Western blot) [4]: unenhanced acetylated α-tubulin
